Data from paper PMC4722623, “Novel c-Met inhibitor suppresses the growth of c-Met-addicted gastric cancer cells” (BMC Cancer, 2016).

Assays:
c-Met [1] = target: T1, c-Met (Homo sapiens, UniProt P08581); test: HTRF c-Met kinase assay; also radiometric kinase panel (Met activity -2 at […]); assay type: biochemical; conditions: read-out: IC50 (nM) in c-Met enzyme assay
T1 construct: recombinant kinase domain of c-Met

c-Met [2] = target: T1, c-Met; test: biochemical; conditions: read-out: IC50 (nM) in c-Met enzyme assay

T1 sequence (P08581 956-1390 limits assumed): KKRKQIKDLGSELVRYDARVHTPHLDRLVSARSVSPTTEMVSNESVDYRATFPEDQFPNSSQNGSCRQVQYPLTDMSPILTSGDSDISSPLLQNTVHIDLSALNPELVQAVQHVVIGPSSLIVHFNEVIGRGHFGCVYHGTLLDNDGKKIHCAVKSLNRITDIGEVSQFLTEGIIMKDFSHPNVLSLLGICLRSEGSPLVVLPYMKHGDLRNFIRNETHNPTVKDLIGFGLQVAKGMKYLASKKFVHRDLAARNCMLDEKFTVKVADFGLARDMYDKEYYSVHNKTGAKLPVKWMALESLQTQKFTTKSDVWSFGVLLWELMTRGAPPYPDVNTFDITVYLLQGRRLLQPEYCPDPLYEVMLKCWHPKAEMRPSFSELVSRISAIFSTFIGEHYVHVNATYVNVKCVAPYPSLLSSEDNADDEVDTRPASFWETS

| Compound | IC50 (c-Met [1]) | IC50 (c-Met [2]) |
| --- | --- | --- |
| FC(F)(F)c1cc(-c2cnc3nnn(CC4CNc5ncccc5O4)c3n2)ccc1OCCN1CCOCC1 (centres unmarked) [KRC-00715] | 9 nM |  |
| Cn1cc(-c2cnc3nnn(CC4CNc5ncccc5O4)c3n2)c2ccccc21 (centres unmarked) [KRC-00509] |  | 6.3 nM |
